Test results from patent EP0064445A1, “N-substituted 2,4-dialkoxybenzene sulfon amides” (CHOAY S.A., priority 1981, dated 1982).

Tested on: souris SWISS
Assay: Interaction with pentobarbital: pentobarbital sleep time in mice
Type: in vivo
Details: male SWISS mice, lots of 10; 200 mg/kg oral, 60 min before pentobarbital 40 mg/kg i.p.
Description: Les essais sont réalisés sur des souris SWISS, EOPS de sexe mâle, pesant de 20 à 24 g, en provenance du centre d'élevage de LE GENEST.
Les animaux sont acclimatés au moins 8 jours à l'animalerie du laboratoire avant les essais.
Les lots sont de 10 souris par test et par produit.
A titre de produits de référence, pour effectuer les essais témoins, on a utilisé les trois substances suivantes : • - N-[(éthyl-1 pyrrolidinyl-2) méthy17méthoxy-2 sulfamoyl-5 benzamide connue sous la désignation sulpiride; • - N-[(éthyl-1 pyrrolidinyl-2)méthy17méthoxy-2 éthylsulfonyl-5 benzamide connue sous la désignation sultopride; • - N-(diéthylamino-2 éthyl) méthoxy-2 méthylsulfonyl-5 benzamide connue sous la désignation tiapride.
Les composés selon l'invention et les substances de référence sont administrés en suspension aqueuse dans l'eau ordinaire à 3% en gomme arabique pour la voie orale (tests d'interactions avec les barbituriques).
Le réactif pharmacologique à savoir le pentobarbital est administré en solution dans du soluté isotonique de NaCl.
Les volumes administrés sont de 0,5 ml d'une solution à 1,6 g/1 pour 20 g de poids corporel par voie intrapérito- néale (40 mg/kg).
Pour effectuer ces essais, on administre à des lots de 10 souris SWISS mâles les composés selon l'invention ou les produits de référence (à savoir sulpiride, sultopride ou tiapride) par voie orale à raison de 200 mg/kg. 60 minutes après l'ingestion des composés selon l'invention ou des produits de référence, on administre aux animaux le pentobarbital sous forme sodique tel que celui commercialisé sous la marque NEMBUTAL. On mesure ensuite : • - le temps d'endormissement, • - le temps de sommeil, et on détermine le paurcentage de variations en plus ou en moins du temps de sommeil. Les résultats de ces essais figurent dans le tableau II suivant.

SMILES | Temps de sommeil (pentobarbital) [mn]
COc1cc(OC)c(S(=O)(=O)NCCN2CCCC2)cc1Cl [Produit 882] | 176 ± 21
COc1cc(OC)c(S(=O)(=O)NCCN2CCCCC2)cc1Cl [Produit 883] | 176 ± 12
COc1cc(OC)c(S(=O)(=O)NCCN2CCOCC2)cc1Cl [Produit 884] | 150 ± 24
COc1cc(OC)c(S(=O)(=O)NCCCN2CCCCC2)cc1Cl [Produit 888] | 140 ± 20
COc1cc(OC)c(S(=O)(=O)NCCCN2CCOCC2)cc1Cl [Produit 889] | 156 ± 15
COc1cc(OC)c(S(=O)(=O)NCCN2CCCC2)cc1Br [Produit 926] | 168 ± 30
COc1cc(OC)c(S(=O)(=O)NCCN2CCCCC2)cc1Br [Produit 927] | 169 ± 26
COc1cc(OC)c(S(=O)(=O)NCCN2CCOCC2)cc1Br [Produit 928] | 165 ± 24
COc1cc(OC)c(S(=O)(=O)NCCCN2CCCCC2)cc1Br [Produit 932] | 142 ± 15
COc1cc(OC)c(S(=O)(=O)NCCCN2CCOCC2)cc1Br [Produit 933] | 180 ± 32

Same assay, conditions: result in words; 200 mg/kg oral, mice

SMILES | effet sur le sommeil au pentobarbital
CCN1CCCC1CNC(=O)c1cc(S(N)(=O)=O)ccc1OC (stereo not shown) [sulpiride, reference compound] | tantôt potentialisateur, tantôt antagoniste
CCN1CCCC1CNC(=O)c1cc(S(=O)(=O)CC)ccc1OC (stereo not shown) [sultopride, reference compound] | potentialisateurs
CCN(CC)CCNC(=O)c1cc(S(C)(=O)=O)ccc1OC [tiapride, N-(diéthylamino-2 éthyl) méthoxy-2 méthylsulfonyl-5 benzamide, reference compound] | potentialisateurs
